The record followed here is patent US9890133B2 (priority 2011, dated 2018).

Converted amounts (≈) assume the structure as drawn.

The nature of this data set: in vitro. The following applies: human.

In the case of `CNC(=O)OC12Oc3cc(C(C)C)ccc3C1(NC(C)=O)C(=O)c1ccccc12` (stereo not drawn) [Example 118, 9b-Acetamido-7-isopropyl-10-oxo-9b,10-dihydro-4bH-benzo[d]indeno[1,2-b]furan-4b-yl methylcarbamate], the CC50 (Picorana CC50) was above 50 µg/mL. Under “Picorana CC50”, `CC(=O)NC12Oc3cc(C(C)C)ccc3C1(NC(C)=O)C(=O)c1ccccc12` (stereo not drawn) [Example 119] returned a CC50 of 38.2 µg/mL (≈ 101 µM). Still for that read-out and setting: with `CC(C)c1ccc2c(c1)OC1(OCc3ccccc3)c3ccccc3C(=O)C21O` (stereo not drawn) [Example 120, 4b-(Benzyloxy)-9b-hydroxy-7-isopropyl-4bH-indeno[1,2-b]benzofuran-10(9bH)-one] the figure was 8.16 µg/mL (≈ 21.1 µM).

For `CC(=O)NC12C(=O)c3ccccc3C1(OC(=O)Oc1ccccc1)Oc1cc(C(C)C)ccc12` (stereo not drawn) [Example 121, Carbonic acid 9b-acetylamino-7-isopropyl-10-oxo-9b,10-dihydro-5-oxa-indeno[2,1-a]inden-4b-yl ester phenyl ester], for the setting “Picorana CC50”, the CC50 was above 50 µg/mL. Where the note is “Picorana CC50”, `CC(C)c1ccc2c(c1)OC1(OC(=S)Nc3ccccc3)c3ccccc3C(=O)C21N=[N+]=[N-]` (stereo not drawn) [Example 122, Phenyl-thiocarbamic acid O-(9b-azido-7-isopropyl-10-oxo-9b,10-dihydro-5-oxa-indeno[2,1-a]inden-4b-yl) ester] had a CC50 of 12 µg/mL (≈ 26.2 µM). For the compound `CCC(=O)NC12Oc3cc(C(C)C)ccc3C1(NC(=O)CC)C(=O)c1ccccc12` (stereo not drawn) [Example 124], the CC50 (Picorana CC50) is above 50 µg/mL. `CC(C)C(=O)NC12Oc3cc(C(C)C)ccc3C1(NC(=O)C(C)C)C(=O)c1ccccc12` (stereo not drawn) [Example 125] had a CC50 (Picorana CC50) of 45.5 µg/mL (≈ 105 µM). Compound `CC(C)c1ccc2c(c1)OC1(O)c3cccnc3C(=O)C21O` (stereo not drawn) [Example 126, 4b,9b-Dihydroxy-7-isopropyl-4bH-benzofuro[2′,3′:3,4]cyclopenta[1,2-b]pyridin-10(9bH)-one] came in with a CC50 (Picorana CC50) of 47.1 µg/mL (≈ 158 µM). Under “Picorana CC50”, `CC(=O)OC12Oc3cc(C(C)C)ccc3C1(OC(C)=O)C(O)c1ccccc12` (stereo not drawn) [Example 127, 10-Hydroxy-7-isopropyl-9b,10-dihydro-4bH-indeno[1,2-b]benzofurane-4b,9b-diyl diacetate] gave a CC50 of 37.6 µg/mL. `CO/N=C1/c2ccccc2C2(NOC)Oc3cc(C(C)C)ccc3C12O` (stereo not drawn) [Example 128, 9b-Hydroxy-7-isopropyl-4b-(methoxyamino)-4bH-indeno[1,2-b]benzofuran-10(9bH)-one O-methyl oxime] yielded a CC50 (Picorana CC50) of 37.3 µg/mL (≈ 105 µM). Take `C=C1c2ccccc2C2(OC)Oc3cc(C(C)C)ccc3C12O` (stereo not drawn) [Example 129, 7-Isopropyl-4b-methoxy-10-methylene-9b,10-dihydro-4bH-indeno[1,2-b]benzofuran-9b-ol]: the CC50 (Picorana CC50) was 6.79 µg/mL (≈ 22 µM).

Where the note is “Picorana CC50”, `CO/N=C1/c2ccccc2C2(OC)Oc3cc(C(C)C)ccc3C12O` (stereo not drawn) [Example 130, 9b-Hydroxy-7-isopropyl-4b-methoxy-4bH-indeno[1,2-b]benzofuran-10(9bH)-one O-methyl oxime] registered a CC50 above 50 µg/mL.

As for `CC(C)c1ccc2c(c1)OC1(O)c3cccc(NCc4ccccc4)c3C(=O)C21O` (stereo not drawn) [Example 132, 1-(Benzylamino)-4b,9b-dihydroxy-7-isopropyl-4bH-indeno[1,2-b]benzofuran-10(9bH)-one], for the setting “Picorana CC50”, the CC50 was 0.72 µg/mL (≈ 1.79 µM). As for `CCNc1cccc2c1C(=O)C1(O)c3ccc(C(C)C)cc3OC21O` (stereo not drawn) [Example 133, 1-(Ethylamino)-4b,9b-dihydroxy-7-isopropyl-4bH-indeno[1,2-b]benzofuran-10(9bH)-one], the CC50 (Picorana CC50) came out at 1.58 µg/mL (≈ 4.66 µM). Same read-out and setting: with `CC(C)c1ccc2c(c1)OC1(C)c3ccccc3C(=O)C21O` (stereo not drawn) [Example 134, 9b-Hydroxy-7-isopropyl-4b-methyl-4bH-indeno[1,2-b]benzofuran-10(9bH)-one] the figure was 6.69 µg/mL (≈ 22.7 µM).

In the case of `CC(C)c1ccc2c(c1)OC1(O)c3ccccc3C(C)C21O` (stereo not drawn) [Example 136, 7-Isopropyl-10-methyl-9b,10-dihydro-4bH-indeno[1,2-b]benzofuran-4b,9b-diol], the CC50 (Picorana CC50) is 7.8 µg/mL (≈ 26.3 µM). Regarding `CC(=O)NC12C(=O)c3c(Br)cccc3C1(O)Oc1cc(C(C)C)ccc12` (stereo not drawn) [Example 137, N-(1-Bromo-4b-hydroxy-7-isopropyl-10-oxo-9b,10-dihydro-4bH-indeno[1,2-b]benzofuran-9b-yl)acetamide], under “Picorana CC50”, the CC50 is 40 µg/mL (≈ 96 µM). Where the note is “Picorana CC50”, `COc1cc2c(cc1OC)C1(O)C(=O)c3ccccc3C1(O)N2C(=O)C(C)C` (stereo not drawn) [Example 138, 4b,9b-Dihydroxy-5-isobutyryl-7,8-dimethoxy-5,9b-dihydro-4bH-indeno[1,2-b]indol-10-one] showed a CC50 of 38.8 µg/mL (≈ 101 µM). `CC(C)c1ccc2c(c1)OC1(O)c3ccc(N4CCCCC4)cc3C(=O)C21O` (stereo not drawn) [Example 139, 4b,9b-Dihydroxy-7-isopropyl-2-piperidinyl-4bH-benzo[d]indeno[1,2-b]furan-10(9bH)-one]: the CC50 (Picorana CC50) came to 0.45 µg/mL (≈ 1.19 µM). Consider `CC(C)c1ccc2c(c1)OC1(O)c3ccc(N4CCOCC4)cc3C(=O)C21O` (stereo not drawn) [Example 140, 4b,9b-Dihydroxy-7-isopropyl-2-morpholinyl-4bH-benzo[d]indeno[1,2-b]furan-10(9bH)-one], for which, for the setting “Picorana CC50”, the CC50 was 2.08 µg/mL (≈ 5.45 µM).

Compound `CC(C)c1ccc2c(c1)OC1(O)c3cccc(N4CCCCC4)c3C(=O)C21O` (stereo not drawn) [Example 141, 4b,9b-Dihydroxy-7-isopropyl-1-piperidinyl-4bH-benzo[d]indeno-[1,2-b]furan-10(9bH)-one] showed a CC50 (Picorana CC50) of 3.47 µg/mL (≈ 9.14 µM). In the case of `CC(C)c1ccc2c(c1)OC1(O)c3cccc(N4CCOCC4)c3C(=O)C21O` (stereo not drawn) [Example 142, 4b,9b-Dihydroxy-7-isopropyl-1-morpholinyl-4bH-benzo[d]indeno[1,2-b]furan-10(9bH)-one], for the setting “Picorana CC50”, the CC50 was 18.7 µg/mL (≈ 49 µM).

In turn, `CC(C)C(=O)N1c2cc(C(C)C)ccc2C2(O)C(=O)c3ccccc3C12O` (stereo not drawn) [Example 145, 4b,9b-Dihydroxy-5-isobutyryl-7-isopropyl-5,9b-dihydro-4bH-indeno[1,2-b]indol-10-one] registered a CC50 (Picorana CC50) of 18.3 µg/mL (≈ 50.2 µM). Still for that read-out and setting: as for `CC(C)c1ccc2c(c1)OC1(O)c3ccc(N4CCC(O)CC4)cc3C(=O)C21O` (stereo not drawn) [Example 146, 4b,9b-Dihydroxy-7-isopropyl-2-(hydroxypiperidinyl)-4bH-benzo[d]indeno[1,2-b]furan-10(9bH)-one], the figure is 1.53 µg/mL (≈ 3.87 µM); as for `CC(C)c1ccc2c(c1)OC1(O)c3cccc(N4CCC(O)CC4)c3C(=O)C21O` (stereo not drawn) [Example 147, 4b,9b-Dihydroxy-1-(4-hydroxypiperidin-1-yl)-7-isopropyl-4bH-benzo[d]indeno[1,2-b]furan-10(9bH)-one], 32.9 µg/mL (≈ 83.1 µM). Where the note is “Picorana CC50”, `COc1ccc(CN2CCN(c3ccc4c(c3)C(=O)C3(O)c5ccc(C(C)C)cc5OC43O)CC2)cc1` (stereo not drawn) [Example 148, 4b,9b-Dihydroxy-7-isopropyl-2-(4-(4-methoxybenzyl)piperazin-1-yl)-4bH-benzo[d]indeno[1,2-b]furan-10(9bH)-one] had a CC50 of 1.72 µg/mL (≈ 3.44 µM). For `COc1ccc(CN2CCN(c3cccc4c3C(=O)C3(O)c5ccc(C(C)C)cc5OC43O)CC2)cc1` (stereo not drawn) [Example 149, 4b,9b-Dihydroxy-7-isopropyl-1-(4-(4-methoxybenzyl)piperazin-1-yl)-4bH-benzo[d]indeno[1,2-b]furan-10(9bH)-one], where the note is “Picorana CC50”, the CC50 was 8.48 µg/mL (≈ 16.9 µM). Regarding `CC(C)c1ccc2c(c1)OC1(O)c3ccc(N(C)C)cc3C(=O)C21O` (stereo not drawn) [Example 150, 2-(Dimethylamino)-4b,9b-dihydroxy-7-isopropyl-4bH-benzo[d]indeno[1,2-b]-furan-10(9bH)-one], the CC50 (Picorana CC50) is 1.32 µg/mL (≈ 3.89 µM). Consider `CC(C)c1ccc2c(c1)OC1(O)c3cccc(N(C)C)c3C(=O)C21O` (stereo not drawn) [Example 151, 1-(Dimethylamino)-4b,9b-dihydroxy-7-isopropyl-4bH-benzo[d]indeno[1,2-b]-furan-10(9bH)-one], for which the CC50 (Picorana CC50) is 1.52 µg/mL (≈ 4.48 µM). Compound `CC(C)c1ccc2c(c1)OC1(O)c3ccccc3/C(=N\N)C21O` (stereo not drawn) [Example 152, 10-Hydrazono-7-isopropyl-9b,10-dihydro-4bH-benzo[d]indeno[1,2-b]furan-4b,9b-diol] gave a CC50 of 10.5 µg/mL (≈ 33.9 µM). The same compound came in with a CC50 (Picorana CC50) of 0.9 µg/mL (≈ 2.9 µM). For `CC(C)c1cc(C(C)C)c2c(c1)C1(O)C(=O)c3c(N)cccc3C1(O)O2` (stereo not drawn) [Example 157, 1-Amino-4b,9b-dihydroxy-6,8-diisopropyl-4bH-benzo[d]indeno[1,2-b]furan-10(9bH)-one], in that order: 28.5 µg/mL (≈ 80.6 µM) and above 100 µg/mL.

As for `COc1ccc(NC(=O)NC23C(=O)c4c(N)cccc4C2(O)Oc2cc(C(C)C)ccc23)cc1` (stereo not drawn) [Example 162], the CC50 was above 10 µg/mL. On the same count and under the same terms, as for `CCCCNC(=O)NC12C(=O)c3c(N)cccc3C1(O)Oc1cc(C(C)C)ccc12` (stereo not drawn) [Example 163, 1-(1-Amino-4b-hydroxy-7-isopropyl-10-oxo-9b,10-dihydro-4bH-indeno[1,2-b]benzofuran-9b-yl)-3-butylurea], the figure is above 10 µg/mL; as for `CC(C)c1ccc2c(c1)OC1(O)c3cccc(N)c3C(=O)C21NC(=O)Nc1ccc(F)cc1` (stereo not drawn) [Example 164, 1-(1-Amino-4b-hydroxy-7-isopropyl-10-oxo-9b,10-dihydro-4bH-indeno[1,2-b]benzofuran-9b-yl)-3-(4-fluorophenyl)urea], above 10 µg/mL; as for `CC(C)c1ccc2c(c1)OC1(O)c3cccc(N)c3C(=O)C21NC(=O)NC(C)(C)C` (stereo not drawn) [Example 165], above 10 µg/mL.

Compound `CC(=O)NC12C(=O)c3c(NC=O)cccc3C1(O)Oc1cc(C(C)C)ccc12` (stereo not drawn) [Example 167, N-(1-Formamido-4b-hydroxy-7-isopropyl-10-oxo-9b,10-dihydro-4bH-benzo[d]-indeno[1,2-b]furan-9b-yl)acetamide] showed a CC50 above 10 µg/mL. On to `CC(C)c1ccc2c(c1)OC1(O)c3cccc(N)c3C(=O)C21NS(C)(=O)=O` (stereo not drawn) [Example 168, N-(1-Amino-4b-hydroxy-7-isopropyl-10-oxo-9b,10-dihydro-4bH-benzo[d]indeno[1,2-b]furan-9b-yl)methanesulfonamide], for which the CC50 is above 10 µg/mL. Compound `CCOP(=O)(NC12C(=O)c3c(N)cccc3C1(O)Oc1cc(C(C)C)ccc12)OCC` (stereo not drawn) [Example 169, Diethyl (1-amino-4b-hydroxy-7-isopropyl-10-oxo-9b,10-dihydro-4bH-indeno[1,2-b]benzofuran-9b-yl)phosphoamidate] gave a CC50 above 10 µg/mL.

With `CC(C)c1ccc2c(c1)OC1(O)c3cccc(N)c3C(=O)C21NC(=O)c1ccc(-c2ccccc2)cc1` (stereo not drawn) [Example 172], the CC50 is above 10 µg/mL. Turning to `CCNC(=O)NC12C(=O)c3c(N)cccc3C1(O)Oc1cc(C(C)C)ccc12` (stereo not drawn) [Example 173], the CC50 is above 10 µg/mL.
